Assay results as given in PubChem BioAssay AID2060624 (Molecular Pharmacology Branch, DTP, NCI, 2025).

Tested on: 217524-143-R1-J4-PDC spheroids with HUVEC/MSC, viability
Assay: Anticancer human tumor 217524-143-R1-J4-PDC patient-derived pancreatic carcinoma cell line growth inhibition [CLK]
Settings: for IC50: curve of first compound; for viability, T/C: stronger effect = lower value; active = viability on the fitted dose curve at most 10% of control; inactive = the rest
In short: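 Patient-derived tumor cells grown as complex spheroids with HUVEC endothelial cells and mesenchymal stem cells, treated with drug combinations. Concentrations descend in half-log steps from near clinical Cmax, or from 10 microM if Cmax unknown.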

[1] = second compound 0.0316 µM, first compound 0.0316 µM
[2] = second compound 0.0316 µM, first compound 0.1 µM
[3] = second compound 0.0316 µM, first compound 0.316 µM
[4] = second compound 0.0316 µM, first compound 1 µM
[5] = second compound 0.0316 µM, first compound 3.16 µM
[6] = second compound 0.0316 µM, first compound 10 µM
[7] = second compound 0.1 µM, first compound 0.0316 µM
[8] = second compound 0.1 µM, first compound 0.1 µM
[9] = second compound 0.1 µM, first compound 0.316 µM
[10] = second compound 0.1 µM, first compound 1 µM
[11] = second compound 0.1 µM, first compound 3.16 µM
[12] = second compound 0.1 µM, first compound 10 µM
[13] = second compound 0.316 µM, first compound 0.0316 µM
[14] = second compound 0.316 µM, first compound 0.1 µM
[15] = second compound 0.316 µM, first compound 0.316 µM
[16] = second compound 0.316 µM, first compound 1 µM
[17] = second compound 0.316 µM, first compound 3.16 µM
[18] = second compound 0.316 µM, first compound 10 µM
[19] = second compound 1 µM, first compound 0.0316 µM
[20] = second compound 1 µM, first compound 0.1 µM
[21] = second compound 1 µM, first compound 0.316 µM
[22] = second compound 1 µM, first compound 1 µM
[23] = second compound 1 µM, first compound 3.16 µM
[24] = second compound 1 µM, first compound 10 µM
[25] = second compound 3.16 µM, first compound 0.0316 µM
[26] = second compound 3.16 µM, first compound 0.1 µM
[27] = second compound 3.16 µM, first compound 0.316 µM
[28] = second compound 3.16 µM, first compound 1 µM
[29] = second compound 3.16 µM, first compound 3.16 µM
[30] = second compound 3.16 µM, first compound 10 µM
[31] = second compound 10 µM, first compound 0.0316 µM
[32] = second compound 10 µM, first compound 0.1 µM
[33] = second compound 10 µM, first compound 0.316 µM
[34] = second compound 10 µM, first compound 1 µM
[35] = second compound 10 µM, first compound 3.16 µM
[36] = second compound 10 µM, first compound 10 µM
[37] = second compound 0.0316 µM, first compound 0.00316 µM
[38] = second compound 0.0316 µM, first compound 0.01 µM
[39] = second compound 0.1 µM, first compound 0.00316 µM
[40] = second compound 0.1 µM, first compound 0.01 µM
[41] = second compound 0.316 µM, first compound 0.00316 µM
[42] = second compound 0.316 µM, first compound 0.01 µM
[43] = second compound 1 µM, first compound 0.00316 µM
[44] = second compound 1 µM, first compound 0.01 µM
[45] = second compound 3.16 µM, first compound 0.00316 µM
[46] = second compound 3.16 µM, first compound 0.01 µM
[47] = second compound 10 µM, first compound 0.00316 µM
[48] = second compound 10 µM, first compound 0.01 µM
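Note: spheroids exposed to agents for seven days before reading.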
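Throughout, for viability, T/C: 100% = DMSO vehicle control viability.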

CC(=O)O[C@H]1C(=O)[C@@]2(C)[C@H]([C@H](OC(=O)c3ccccc3)[C@]3(O)C[C@H](OC(=O)[C@H](O)[C@@H](NC(=O)c4ccccc4)c4ccccc4)C(C)=C1C3(C)C)[C@]1(OC(C)=O)CO[C@@H]1C[C@@H]2O + CNC(=O)c1ccc(Nc2nc(OC3CCCC3)c3c(-c4ccc5nc(C)oc5c4)c[nH]c3n2)c(OC)c1
inactive: viability, T/C [1] 19.7% | viability, T/C [2] 14.3% | viability, T/C [3] 16.9% | viability, T/C [4] 16.6% | viability, T/C [5] 25.4% | viability, T/C [6] 30.8% | viability, T/C [7] 31.3% | viability, T/C [8] 26.3% | viability, T/C [9] 31.9% | viability, T/C [10] 28% | viability, T/C [11] 33.3% | viability, T/C [12] 43.4% | viability, T/C [13] 34.9% | viability, T/C [14] 30.4% | viability, T/C [15] 37% | viability, T/C [16] 39.8% | viability, T/C [17] 34.5% | viability, T/C [18] 33% | viability, T/C [19] 20.6% | viability, T/C [20] 27.6% | viability, T/C [21] 33.4% | viability, T/C [22] 39.4% | viability, T/C [23] 35.9% | viability, T/C [24] 33% | viability, T/C [25] 20.9% | viability, T/C [26] 26.1% | viability, T/C [27] 31% | viability, T/C [28] 34.8% | viability, T/C [29] 37.6% | viability, T/C [30] 31.2% | viability, T/C [31] 19.1% | viability, T/C [32] 27.5% | viability, T/C [33] 29% | viability, T/C [34] 36.2% | viability, T/C [35] 40.2% | viability, T/C [36] 32.2%
< 31.6 nM: IC50 (second compound 0.0316 µM) | IC50 (second compound 0.1 µM) | IC50 (second compound 0.316 µM) | IC50 (second compound 1 µM) | IC50 (second compound 3.16 µM) | IC50 (second compound 10 µM)

CCc1c2c(nc3ccc(O)cc13)-c1cc3c(c(=O)n1C2)COC(=O)[C@]3(O)CC + CNC(=O)c1ccc(Nc2nc(OC3CCCC3)c3c(-c4ccc5nc(C)oc5c4)c[nH]c3n2)c(OC)c1
< 3.16 nM: IC50 (second compound 0.1 µM) | IC50 (second compound 0.316 µM) | IC50 (second compound 1 µM) | IC50 (second compound 3.16 µM) | IC50 (second compound 10 µM)
3.76 nM: IC50 (second compound 0.0316 µM)
inactive: viability, T/C [37] 53.2% | viability, T/C [38] 39.4% | viability, T/C [1] 32.2% | viability, T/C [2] 24.1% | viability, T/C [3] 15.6% | viability, T/C [39] 48.7% | viability, T/C [40] 35.8% | viability, T/C [7] 27.9% | viability, T/C [8] 24.6% | viability, T/C [9] 17.4% | viability, T/C [41] 39.6% | viability, T/C [42] 30.1% | viability, T/C [13] 25.1% | viability, T/C [14] 21.4% | viability, T/C [15] 12.9% | viability, T/C [43] 24.6% | viability, T/C [44] 20.5% | viability, T/C [19] 17.6% | viability, T/C [20] 15.6% | viability, T/C [45] 23.6% | viability, T/C [46] 20.8% | viability, T/C [25] 15.6% | viability, T/C [26] 13% | viability, T/C [47] 23.2% | viability, T/C [48] 18.8% | viability, T/C [31] 17% | viability, T/C [32] 13.4%
active: viability, T/C [4] 3.04% | viability, T/C [10] 3.12% | viability, T/C [16] 3.58% | viability, T/C [21] 9.88% | viability, T/C [22] 3.65% | viability, T/C [27] 9.01% | viability, T/C [28] 2.91% | viability, T/C [33] 10% | viability, T/C [34] 3.01%

Cn1ncnc1[C@H]1c2n[nH]c(=O)c3cc(F)cc(c23)N[C@@H]1c1ccc(F)cc1 + CNC(=O)c1ccc(Nc2nc(OC3CCCC3)c3c(-c4ccc5nc(C)oc5c4)c[nH]c3n2)c(OC)c1
< 0.316 nM: IC50 (second compound 0.1 µM) | IC50 (second compound 0.316 µM) | IC50 (second compound 1 µM) | IC50 (second compound 3.16 µM) | IC50 (second compound 10 µM)
> 100 nM: IC50 (second compound 0.0316 µM)
inactive: viability, T/C (second compound 0.0316 µM, first compound 0.000316 µM) 101% | viability, T/C (second compound 0.0316 µM, first compound 0.001 µM) 68.8% | viability, T/C [37] 86.1% | viability, T/C [38] 85% | viability, T/C [1] 83.4% | viability, T/C [2] 75.5% | viability, T/C (second compound 0.1 µM, first compound 0.000316 µM) 43.6% | viability, T/C (second compound 0.1 µM, first compound 0.001 µM) 44.8% | viability, T/C [39] 41.6% | viability, T/C [40] 37.5% | viability, T/C [7] 38.6% | viability, T/C [8] 31.4% | viability, T/C (second compound 0.316 µM, first compound 0.000316 µM) 34.5% | viability, T/C (second compound 0.316 µM, first compound 0.001 µM) 42.8% | viability, T/C [41] 34.1% | viability, T/C [42] 39% | viability, T/C [13] 39.9% | viability, T/C [14] 37.3% | viability, T/C (second compound 1 µM, first compound 0.000316 µM) 23.3% | viability, T/C (second compound 1 µM, first compound 0.001 µM) 32.8% | viability, T/C [43] 30.6% | viability, T/C [44] 23.3% | viability, T/C [19] 21.3% | viability, T/C [20] 25.8% | viability, T/C (second compound 3.16 µM, first compound 0.000316 µM) 28.6% | viability, T/C (second compound 3.16 µM, first compound 0.001 µM) 23.7% | viability, T/C [45] 27.2% | viability, T/C [46] 23.2% | viability, T/C [25] 24.4% | viability, T/C [26] 23.6% | viability, T/C (second compound 10 µM, first compound 0.000316 µM) 29% | viability, T/C (second compound 10 µM, first compound 0.001 µM) 25.5% | viability, T/C [47] 24.7% | viability, T/C [48] 24.6% | viability, T/C [31] 24.3% | viability, T/C [32] 21.2%

Nc1ccn(C2OC(CO)C(O)C2(F)F)c(=O)n1 (stereo not given) + CNC(=O)c1ccc(Nc2nc(OC3CCCC3)c3c(-c4ccc5nc(C)oc5c4)c[nH]c3n2)c(OC)c1
< 31.6 nM: IC50 (second compound 0.1 µM) | IC50 (second compound 0.316 µM) | IC50 (second compound 1 µM) | IC50 (second compound 3.16 µM) | IC50 (second compound 10 µM)
47 nM: IC50 (second compound 0.0316 µM)
inactive: viability, T/C [1] 60.1% | viability, T/C [2] 31% | viability, T/C [3] 25.2% | viability, T/C [4] 29.9% | viability, T/C [5] 30.4% | viability, T/C [6] 25.1% | viability, T/C [7] 35.3% | viability, T/C [8] 28.8% | viability, T/C [9] 20.8% | viability, T/C [10] 33.2% | viability, T/C [11] 29% | viability, T/C [12] 28.1% | viability, T/C [13] 28.9% | viability, T/C [14] 25.1% | viability, T/C [15] 18.5% | viability, T/C [16] 23.5% | viability, T/C [17] 20.6% | viability, T/C [18] 21.3% | viability, T/C [19] 24.8% | viability, T/C [20] 17.1% | viability, T/C [21] 13.6% | viability, T/C [22] 19.9% | viability, T/C [23] 13.3% | viability, T/C [24] 14.5% | viability, T/C [25] 21.8% | viability, T/C [26] 18.1% | viability, T/C [27] 11.2% | viability, T/C [28] 13.5% | viability, T/C [29] 14.3% | viability, T/C [30] 11.6% | viability, T/C [31] 23.4% | viability, T/C [32] 18.6% | viability, T/C [33] 12.8% | viability, T/C [34] 10.8% | viability, T/C [35] 13.8% | viability, T/C [36] 11.8%

O=c1[nH]cc(F)c(=O)[nH]1 + CNC(=O)c1ccc(Nc2nc(OC3CCCC3)c3c(-c4ccc5nc(C)oc5c4)c[nH]c3n2)c(OC)c1
768 nM: IC50 (second compound 0.0316 µM)
inactive: viability, T/C [1] 79.9% | viability, T/C [2] 86.3% | viability, T/C [3] 61.6% | viability, T/C [4] 48.3% | viability, T/C [5] 30.7% | viability, T/C [6] 29.1% | viability, T/C [7] 40.4% | viability, T/C [8] 37.5% | viability, T/C [9] 39.4% | viability, T/C [10] 35.6% | viability, T/C [11] 30% | viability, T/C [12] 26.7% | viability, T/C [13] 32.3% | viability, T/C [14] 36.7% | viability, T/C [15] 31.5% | viability, T/C [16] 29.9% | viability, T/C [17] 29.1% | viability, T/C [18] 21.5% | viability, T/C [19] 29.6% | viability, T/C [20] 26.7% | viability, T/C [21] 24.8% | viability, T/C [22] 21.9% | viability, T/C [23] 20.2% | viability, T/C [24] 13.9% | viability, T/C [25] 27% | viability, T/C [26] 30.4% | viability, T/C [27] 21.7% | viability, T/C [28] 23.4% | viability, T/C [29] 18.5% | viability, T/C [30] 13.4% | viability, T/C [31] 23.2% | viability, T/C [32] 27.4% | viability, T/C [33] 22.4% | viability, T/C [34] 22.6% | viability, T/C [35] 17.9% | viability, T/C [36] 13.1%
< 31.6 nM: IC50 (second compound 0.1 µM) | IC50 (second compound 0.316 µM) | IC50 (second compound 1 µM) | IC50 (second compound 3.16 µM) | IC50 (second compound 10 µM)
